Results reported in patent US20230263787A1, “ENHANCED MITOCHONDRIAL RESPONSE WITH THIOZOLIDINEDIONE, PIOGLITAZONE OR ROSIGLITAZONE” (priority 2020, published 2023).

What was measured:
DRG-OPC co-cultures = test: Axon damage after lysolecithin demyelination in microfluidic chambers, drug applied to neuronal cell body chamber; type: cell-based, mouse; conditions: 15 µM SR-18292 added together with pioglitazone to cell body chamber
Method: Before adding lysolecithin to microfluidic chambers, the inventors used an Axio Observer Z1 inverted motorized microscope (Zeiss, Germany), for live imaging to identify the myelinated axonal segments (video 11, online resource). Images of the myelinated axonal segments were saved with x-y coordinates of the stage position. The effect of live imaging on the axons and myelin was determined by imaging microfluidic chamber containing both mKate2 expressing DRGs and eGFP-expressing OPC where imaged at 20x magnification (Plan-Apochromat 0.8 NA Ph 2 M27 objective, Zeiss, Germany) for 30 minutes before returning the microfluidic chambers to the incubator.
The inventors then added lysolecithin for 2 hours before live imaging the previously imaged axonal segments again, using the x-y co-ordinate of the stage position. These live images of axons, pre and post lysolecithin, allowed the assessment of the demyelination of the axonal segments (based on M1-M4-eGFP fluorescence) as well as axonal damage following acute demyelination (based on appearance of mKate2 fluorescence). […] Meanwhile, axons were classed as fragmented when the mKate2 fluorescence was disrupted and not continuous in at least one part of the axon. […] Following exposure to lysolecithin, demyelination was confirmed based on disruption or loss of M1-M4-eGFP fluorescence. […]

[1] = tested on: cerebellar slices from Shiverer mice; test: Mitochondrial dynamics in dysmyelinated Purkinje cell axons of Shiverer cerebellar slices exposed to lysolecithin; type: cell-based, mouse; conditions: chronically dysmyelinated axons
Method: Cerebellar slices were prepared as previously described. Briefly, wild type C57BL/6 and Shiverer mice pups were sacrificed at P10 and cerebellum was placed in ice-cold dissection medium. The sagittal slices were then sectioned into 300 µm thick slices and placed on a membrane insert. Picospritzer III (Parker, US) and a micromanipulator was used to inject mEOS2-Lentivirus (titre 7-8*10^9; aliquots stored at -80° C.) containing 0.025% of Fast-Green (FG, Sigma F7258, UK) in to the Purkinje cell body layer. […]
Live imaging of mitochondria in Purkinje cell axon was performed at DIV14, directly after removing the lysolecithin. […] Newly transported mitochondria, either appearing from the neuronal cell body to the most proximal 20 micron axonal segment or distal axonal mitochondria appearing in the 20 microns long axonal segment of the most distal photoconverted segment, were counted visually and confirmed using the kymograph. […] For each mitochondrion appearing, the direction of movement was noted, as well as the area of the mitochondrion was measured manually, using the measure function in Fiji, when it first appeared in the axon.
Kymographs of the time lapse images were generated by using the ImageJ plugin KymographClear2.0 [40]. Mitochondrial speed of movement was determined by using the Kymotoolbox ImageJ plugin [80]. […]

DRG axons = test: Lysolecithin exposure of unmyelinated DRG cultures (axon damage); type: cell-based, mouse; conditions: 0.005 mg/ml lysolecithin for 2 hours
DRG neurons [2] = conditions: 17 hours
Method: Complex IV histochemistry was performed as described below and images were obtained using bright field microscopy. The intensity of the complex IV reactive product was assessed using FIJI and densitometry to analyse complex IV activity at a single cell level.

DRG neurons [3] = test: Seahorse analysis of mitochondrial respiration in DRG neurons; conditions: sodium azide 100 µM for 16 hours
Method: DRG neuronal cells were cultured on V7 Seahorse 24-well cell culture microplates (Agilent Technologies), in maintenance medium in a 5% CO2 37° C. incubator. […] Plates were incubated for 30 mins at 37° C. (without CO2), before entry into the Seahorse XFe24 Extracellular Flux Analyser (Agilent). Three measurements were taken basally, and three measurements taken after injection of each drug to either inhibit ATP-linked respiration, uncouple respiration or inhibit the respiratory chain. Mitochondrial respiration was calculated by subtracting the first OCR measurement following injection of antimycin/rotenone from the third basal OCR measurement. Normalisation of OCR to relative protein content was achieved following Sulforhodamine B (SRB) staining of all cell wells. Data for each treatment groups was averaged from between 4-5 replicate wells.

Cc1ccc(CN(CC(O)COc2cccc3[nH]ccc23)C(C)(C)C)cc1 (stereo not drawn) [PGC1α inhibitor, SR-18292] was tested, and the “effect on the protective effect of pioglitazone on demyelinated axons” value (DRG-OPC co-cultures) was “significantly diminished”.
With “L-α-Lysophosphatidylcholine [lysolecithin]” the “axonal mitochondrial dynamics of newly transported mitochondria” value [1] was “does not significantly impact” and the “damage to DRG axons in unmyelinated cultures” value (DRG axons) was “without damaging the DRG axons”.
For [N-]=[N+]=[N-] [sodium azide], the “highest dose which did not impact cell viability and resulted in complex IV inhibition” value (DRG neurons [2]) was 100 µM and the cell viability (DRG neurons [3]) was “without compromising cell viability”.
